{
  "source": "paper PMC4633953",
  "about": "“FR171456 is a specific inhibitor of mammalian NSDHL and yeast Erg26p” (Nature Communications, 2015)",
  "key": {"K562": {"test_system": "K562", "test": "Mammalian cell proliferation, K562", "type": "cell-based"}, "hepatic sterol synthesis": {"test_system": "hepatic sterol synthesis", "design": "method as in PMID 15217190", "conditions": "rats, short term experiments, up to 10 mg kg^−1 ref 14; cited from earlier work"}, "[1]": {"test_system": "ERG26 heterozygous strain (erg26Δ/ERG26)", "test": "Haploinsufficiency profiling (HIP)", "type": "cell-based, S. cerevisiae", "conditions": "FR171456 at IC30 (4 μM)", "method": "The HIP assay was performed in 24-well plates (Greiner 662102), with 1.6 ml per well YPD. Experimental compounds were tested at n=2 within the same plate at or close to their IC30 concentration. Each plate contained two no drug controls, one positive control (Benomyl), 10 experimental compounds in duplicates and one contamination control that received no cells. A standard experiment was 4 plates per 40 experimental compounds processed robotically without human intervention. YPD per compound filled wells were inoculated with ∼250 yeast cells per strain (100 μl of a 1.5-OD600 per ml culture) from an overnight log phase preculture to start the experiment (Supplementary Fig. 2). The plates were pipetted with a standard 96 pipettor head by providing tip boxes preconfigured with a special tip pattern. Plates were incubated for 16 h in a robotic shaking incubator at 30 °C/550 r.p.m. allowing for ∼5 doublings. ∼250 yeast cells per strain (120 μl of a 1.2-OD600 per ml culture) were subsequently transferred into a preconfigured 24-well plate that was stored in a robotic plate reservoir at 4 °C until 30 min prior to its use where it was prewarmed to 30 °C. Once inoculated the new plate was incubated at 30 °C/550 r.p.m. to allow the next five yeast generations (generation 6–10) and the plate containing the first five doubling cultures was stored at 4 °C. […]"}, "[2]": {"test_system": "Candida tropicalis NF2903", "test": "Antifungal MIC", "type": "cell-based"}, "Candida krusei NF2902": {"test_system": "Candida krusei NF2902", "test": "Antifungal MIC", "type": "cell-based", "conditions": "Pichia kudriavzevii"}, "Candida albicans NF2103": {"test_system": "Candida albicans NF2103", "test": "Antifungal MIC", "type": "cell-based"}, "Erg26p": {"biological_target": "T1, Erg26p (Saccharomyces cerevisiae, UniProt P53199)", "T1 sequence (P53199 1-349)": "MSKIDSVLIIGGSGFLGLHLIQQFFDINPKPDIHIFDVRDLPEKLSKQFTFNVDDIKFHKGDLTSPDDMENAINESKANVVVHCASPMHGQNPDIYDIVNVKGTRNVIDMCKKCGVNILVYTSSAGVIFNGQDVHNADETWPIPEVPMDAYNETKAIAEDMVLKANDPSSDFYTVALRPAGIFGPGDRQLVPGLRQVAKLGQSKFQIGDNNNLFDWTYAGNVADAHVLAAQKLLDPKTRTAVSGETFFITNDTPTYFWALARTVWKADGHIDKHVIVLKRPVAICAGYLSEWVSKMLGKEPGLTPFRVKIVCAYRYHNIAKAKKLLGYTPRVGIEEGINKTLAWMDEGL", "test": "biochemical", "experimental": "To test this hypothesis an in vitro microsomal Erg26p activity assay[30] was used. Erg26p activity was directly assessed in the presence of increasing concentrations of FR171456 (10 nM–0.1 mM) in the presence of 150 μM carboxysterol substrate (Fig. 1c) and the cofactor NAD^+ (0.5 mM) followed by GC-MS detection of the product 4α-methyl-cholest-8,24-dien-3-one.\nWild-type yeast (FL200) microsomes were prepared as follows. Yeast cells were disrupted by glass bead homogenization (0.45-mm diameter) in 100 mM phosphate buffer (pH 7.5) containing 1.5 mM reduced glutathione and 30 mM nicotinamide for 8 min at 0 °C[44]. The cell extract was obtained by centrifugation at 10,000 × g for 20 min. Microsomes were then isolated by centrifuging the cell extract supernatant at 100,000 × g for 90 min. The resulting microsomal pellet was resuspended in 100 mM phosphate buffer (pH 7.5) containing 3 mM reduced glutathione and 20% glycerol (v/v) using an Elvehjem–Potter homogenizer. Yeast microsomes (1.2 mg of protein) were incubated in the presence of 4α-carboxy-4β-methyl-cholest-8,24-dien-3β-ol (50–300 mM) and NAD^+ (0.5 mM) for 35–45 min at 30 °C. After addition of coprostanone (2–6 μg) as internal standard, the reactions were extracted as described previously[12]. The extract was analysed by TLC on silica gel and eluted twice with CH2Cl2. The fraction migrating between a standard of 4-desmethyl-sterone (RF= 0.50) and 4,4-dimethyl-sterone (RF=0.70) was eluted and analysed using a GC-MS spectrometer (Agilent 5973 N).\nIn the case of inhibition assays, microsomes were incubated for 35–45 min at 30 °C in the presence of 4α-carboxy-4β-methyl-cholest-8,24-dien-3β-ol (50–300 mM) and a range of inhibitor concentration (0.01–100 μM) from which a dose–response curve was obtained allowing the corresponding I50 values to be determined.\nThe GC-MS spectrometer (Agilent 5973 N) was equipped with an ‘on column' injector and a capillary column (30 × 0.25 mm) coated with DB5 (H2 flow rate of 2 ml min^−1). The temperature program included a 30 °C min^−1 increase from 60 °C to 240 °C, and followed by a 2 °C/min increase from 240 °C to 280 °C. The areas of the GC peaks of coprostanone (tR=1.000) and of the produced 4α-methyl-cholest-8,24-dien-3-one (tR=1.139), corrected from endogenous component of the same tR (1.139) determined in the blank (boiled microsomes), allowed the rate of transformation of 4α-carboxy-4β-methyl-cholest-8,24-dien-3β-ol to be measured. Under these conditions, the estimated limit of detection of the 3βHSD/D activity was 0.1 nmol h^−1 mg^−1."}, "[3]": {"test_system": "erg26Δ haploid yeast expressing mutant ERG26 alleles", "test": "Growth dose response of erg26Δ haploid yeast expressing mutant ERG26 alleles", "type": "cell-based, S. cerevisiae", "conditions": "seven mutant ERG26 alleles, rich liquid media", "source_text": "To confirm that the observed ERG26 mutations are dominant and sufficient to confer FR171456 resistance, but retain the essential function of Erg26p, we assessed the growth of erg26Δ haploid yeast expressing wild-type ERG26 or one of seven mutant alleles inserted at another locus in rich liquid media. […] It was not possible to generate a haploid strain carrying a single copy of ERG26 encoding the Gly90Ser mutation after multiple attempts. Thus seven of the eight mutations within the coding region of ERG26 are both dominant for FR171456 resistance and retain sufficient enzymatic function to support life. This additional genetic data set confirms that Erg26p is the target of FR171456.\nFor EMS mutagenesis experiments, 1 × 10^8 cells were plated on one standard YPD agar plate containing 50 μM FR171456 in 2% DMSO v/v following a standard EMS mutagenesis protocol. After 2 days incubation at 30 °C 48 representative colonies were picked and retested in an overnight liquid assay for growth in YPD with or without 50 μM FR171456 in 2% DMSO v/v. Genomic DNA was prepared from 42 resistant clones (+ one wild type) and for each the entire ERG26 gene was sequenced following PCR amplification with high-fidelity polymerase. […]"}, "[4]": {"test_system": "Saccharomyces cerevisiae NF3201", "test": "Antifungal MIC", "type": "cell-based"}, "serum cholesterol": {"test_system": "serum cholesterol", "conditions": "cited from earlier work"}},
  "note": "“And” between values parts separate entries of the source, which are not always exact repeats. Identical values can stand only once.",
  "data": [
    {"smiles": "C=C(CCC(C)C1CCC2C1(C)CC(O)C13CC14C(=O)CC(O)C(C)(C(=O)O)C4C(=O)CC23O)C(C)C", "note": "[FR171456, (1R,2aR,3R,5aR,5bS,7aR,8S,9S,11aS,12aR)-1,5b,9-trihydroxy-2a,8-dimethyl-3-((R)-6-methyl-5-methyleneheptan-2-yl)-7,11-dioxohexadecahydrocyclopenta[a]cyclopropa[e]-phenanthrene-8-carboxylic acid]", "values": [
      {"measurement": "concentration affecting proliferation", "setting": "K562", "result": 36, "unit": "µM"},
      {"measurement": "dose giving significant reduction in hepatic sterol synthesis", "setting": "hepatic sterol synthesis", "result": 0.1, "unit": "mg/kg"},
      {"measurement": "strain sensitivity in HIP profile", "setting": "[1]", "result": "most significant hypersensitivity"},
      {"measurement": "MIC", "setting": "[2]", "result": "72 µM and 32 µg/mL"},
      {"measurement": "MIC", "setting": "Candida krusei NF2902", "result": "64 µg/mL and 144 µM"},
      {"measurement": "MIC", "setting": "Candida albicans NF2103", "result": "32 µg/mL and 72 µM"},
      {"measurement": "IC50", "setting": "Erg26p", "result": "2200 ± 500", "unit": "nM"},
      {"measurement": "change of growth IC50 compared with the isogenic control", "setting": "[3]", "result": "increase in the IC50"},
      {"measurement": "MIC", "setting": "[4]", "result": "8 µg/mL and 18 µM"},
      {"measurement": "dose giving significant reduction in serum cholesterol", "setting": "serum cholesterol; rabbits treated for 3 weeks ref 14", "result": 0.001, "unit": "mg/kg"},
      {"measurement": "adverse effects", "setting": "serum cholesterol; rabbits, 3 weeks, doses up to 1 mg kg^−1 ref 14", "result": "no adverse effects reported"},
      {"measurement": "side effects", "setting": "serum cholesterol; rabbits, efficacious doses for 14 days ref 14", "result": "no reported side effects"}
    ]}
  ]
}
